Assay [1] relates to breast cancer in non-carriers. In words: Response to neoadjuvant chemotherapy in matched non-carrier breast cancer patients. The class given is in vivo, human. Here is the method: (§1) 3479 unselected incident cases of invasive breast cancer were identified at 18 different hospitals in Poland during the study period. The medical records and pathology reports were reviewed locally at the study centre in Szczecin. Information was recorded on age at diagnosis, stage, grade and lymph-node status, estrogen-receptor status, multi-centricity and bilaterality. Pathology review of tumor blocks and/or paraffin-embedded slides were requested from the corresponding pathology centres. One or more specimens were obtained from 3136 of the […] patients. A central pathology review was conducted in Szczecin by two pathologists associated with the study. Pathologists were blinded to mutation status. […] Pre-treatment tumor size was determined in all patients by a combination of clinical examination and mammography (for some patients ultrasound examinations were also performed). Post-treatment size was determined by pathology report. Lymph node status was evaluated prior to and after treatment. Pre-treatment lymph node status was evaluated with a combination of clinical exam, ultrasound and fine needle aspiration. After treatment all patients underwent axillary dissection and node status was evaluated by pathology report. […] The statistical significance of group differences was assessed using Fisher's Exact Test. […]

The test system of assay [2] is breast cancer in BRCA1 mutation carriers. Kind of assay: Response to neoadjuvant chemotherapy in breast cancer patients carrying a BRCA1 mutation. The class given is in vivo, human. Here is the method:
as §1

For the next assay, the system named is tumor cell lines. As to conditions: BRCA1 protein reconstituted into the tumor cell lines; cited from earlier work.
The next assay has as its system ovarian cancer. The following applies: cited from earlier work.
The test system of the next assay is lung cancer. The following applies: cited from earlier work.
A further assay concerns breast cancer. As to conditions: cited from earlier work.
For the next assay, the system named is MCF7 cells. As to conditions: BRCA1 protein downregulation, premature inactivation of the spindle checkpoint; cited from earlier work.

As for `CC(=O)O[C@@]12CO[C@@H]1C[C@H](O)[C@@]1(C)C(=O)[C@H](O)C3=C(C)[C@@H](OC(=O)[C@H](O)[C@@H](NC(=O)OC(C)(C)C)c4ccccc4)C[C@@](O)([C@@H](OC(=O)c4ccccc4)[C@H]21)C3(C)C` [docetaxel], the “patients with complete or partial response, of patients treated” value in assay [1] (non-carriers) was 12 of 12; in assay [2] it was 6 of the 15. For the same molecule, the patients who responded in assay [1] (non-carriers with ER-negative tumors) was found to be 4.
Turning to `CC(=O)O[C@H]1C(=O)[C@@]2(C)[C@H]([C@H](OC(=O)c3ccccc3)[C@]3(O)C[C@H](OC(=O)[C@H](O)[C@@H](NC(=O)c4ccccc4)c4ccccc4)C(C)=C1C3(C)C)[C@]1(OC(C)=O)CO[C@@H]1C[C@@H]2O` [paclitaxel], the sensitivity to paclitaxel result is recorded as “increased” in the assay with tumor cell lines and “insensitive” with MCF7 cells. In addition, the effectivity result in the assay on ovarian cancer is listed as “around 30%”; with lung cancer, approximately 20%; with breast cancer, approximately 50%.

These data come from patent US20080241834A1, “Method for improving neoadjuvant chemotherapy” (priority 2006, published 2008).
